Measurements published in paper PMC6934184, “Selective DNA-PKcs inhibition extends the therapeutic index of localized radiotherapy and chemotherapy” (The Journal of Clinical Investigation, 2019).

Molecular target: T1, NEK7 (Homo sapiens, UniProt Q8TDX7)
T1 construct: purchased Thermo Fisher Scientific (Life Technologies) SelectScreen
Test: SelectScreen Z'LYTE
Assay type: biochemical
Outline: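 SelectScreen broad panel; activity (Z'LYTE, Adapta) plus binding formats. ATP: Km app for CSF1R Z'LYTE; 10 for CAMK1 Adapta. Readout = % per kinase.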

T1 sequence (Q8TDX7 whole entry): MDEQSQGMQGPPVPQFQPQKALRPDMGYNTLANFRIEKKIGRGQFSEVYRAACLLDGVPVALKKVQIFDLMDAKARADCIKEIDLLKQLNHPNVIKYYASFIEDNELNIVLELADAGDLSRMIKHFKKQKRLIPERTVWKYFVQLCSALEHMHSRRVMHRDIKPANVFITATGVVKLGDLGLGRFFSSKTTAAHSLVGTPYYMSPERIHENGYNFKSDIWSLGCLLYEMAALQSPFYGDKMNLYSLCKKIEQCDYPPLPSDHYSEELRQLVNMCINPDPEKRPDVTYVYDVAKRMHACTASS

CN(C(=O)CN1CCOCC1)c1ccc2sc3c(-c4cccc5c(=O)cc(N6CC7CCC(C6)O7)oc45)cccc3c2c1 [NU5455]
inhibition at 1 µM: -2.1%
